What follows are compounds tested against T1, human renal renin (Homo sapiens, UniProt P00797) (assay: Inhibition of human renal renin in vitro (angiotensin I formed, measured by radioimmunoassay)). Settings: human renal renin with renin substrate (human angiotensinogen), 37° C., pH 6.0.
T1 construct: human renal renin, free from acid proteolytic activity; from tissue; host or cells: human kidney (from the word 'renal')
T1 sequence (P00797 67-406): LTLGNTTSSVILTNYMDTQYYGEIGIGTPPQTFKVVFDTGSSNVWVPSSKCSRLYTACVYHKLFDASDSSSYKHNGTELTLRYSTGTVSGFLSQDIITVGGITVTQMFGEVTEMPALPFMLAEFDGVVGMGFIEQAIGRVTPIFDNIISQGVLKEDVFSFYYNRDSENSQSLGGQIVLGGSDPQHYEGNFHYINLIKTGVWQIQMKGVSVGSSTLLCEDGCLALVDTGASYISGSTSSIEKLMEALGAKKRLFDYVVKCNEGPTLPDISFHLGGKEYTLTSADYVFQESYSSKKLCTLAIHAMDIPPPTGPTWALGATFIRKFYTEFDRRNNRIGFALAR
Type: biochemical
Procedure: At the end of the incubation, the amount of angiotensin I formed is measured by radioimmunoassay and the molar concentration required to cause 50% inhibition, expressed as the IC50 is calculated.

Compound | IC50
CCCC[C@H](NC(=O)C(Cc1ccccc1)Cn1ccnc1)C(=O)N[C@@H](CC1CCCCC1)[C@@H](O)[C@H]1OC[C@@H]1CC (mixture of isomers) [Example 154, (2RS)-2-Benzyl-3-(imidazol-1-yl)propionyl-(nor)Leucine Amide of (1R,2S,2'S,3'S)-2-Amino-3-cyclohexyl-1-[3'-(ethyl)oxetan-2'-yl]-1-(hydroxy)propane] | 700 pM
CC[C@H]1CO[C@@H]1[C@H](O)[C@H](CC1CCCCC1)NC(=O)C(Cc1cnc[nH]1)NC(=O)C(Cc1ccccc1)NC(=O)OC(C)(C)C (stereo partly drawn) [Example 40, Boc-Phe-His Amide of (1R,2S,2'S,3'S)-2-Amino-3-cyclohexyl-1-[3'-(ethyl)oxetan-2'-yl]-1-(hydroxy)propane] | 470 pM
CC(C)[C@H]1CO[C@@H]1[C@H](O)[C@H](CC1CCCCC1)NC(=O)[C@H](Cc1cnc[nH]1)NC(=O)[C@H](Cc1ccccc1)NC(=O)OC(C)(C)C [Example 41, Boc-Phe-His Amide of (1R,2S,2'S,3'S)-2-Amino-3-cyclohexyl-1-hydroxy-1-[3'-(isopropyl)oxetan-2'- yl]propane] | 610 pM
CCC[C@H]1CO[C@@H]1[C@H](O)[C@H](CC1CCCCC1)NC(=O)C(Cc1cnc[nH]1)NC(=O)C(Cc1ccccc1)NC(=O)OC(C)(C)C (stereo partly drawn) [Example 43, Boc-Phe-His Amide of (1R,2S,2'S,3'S)-2-Amino-3-cyclohexyl-1-hydroxy-1-[3'-(propyl)oxetan-2'-yl]propane] | 380 pM
CC(C)C[C@H]1CO[C@@H]1[C@H](O)[C@H](CC1CCCCC1)NC(=O)[C@H](Cc1cnc[nH]1)NC(=O)[C@H](Cc1ccccc1)NC(=O)OC(C)(C)C [Example 44, Boc-Phe-His Amide of (1R,2S,2'S,3'S)-2-Amino-3-cyclohexyl-1-hydroxy-1-[3'-(isobutyl)oxetan-2'-yl]propane] | 1100 pM
CC(C)(C)OC(=O)NC(Cc1ccccc1)C(=O)NC(Cc1cnc[nH]1)C(=O)N[C@@H](CC1CCCCC1)[C@@H](O)[C@@H]1CCO1 (stereo partly drawn) [Example 45, Boc-Phe-His Amide of (1R,2S,2'S)-2-Amino-3-cyclohexyl-1-hydroxy-1-(oxetan-2'-yl)propane] | 1200 pM
C[C@H]1CO[C@@H]1[C@H](O)[C@H](CC1CCCCC1)NC(=O)C(Cc1cnc[nH]1)NC(=O)C(Cc1ccccc1)NC(=O)OC(C)(C)C (stereo partly drawn) [Example 46, Boc-Phe-His Amide of (1R,2S,2'S,3'S)-2-Amino-3-cyclohexyl-1-hydroxy-1-[3'-(methyl)oxetan-2'-yl]propane] | 510 pM
CC([C@H]1CO[C@@H]1[C@H](O)[C@H](CC1CCCCC1)NC(=O)[C@H](Cc1cnc[nH]1)NC(=O)[C@H](Cc1ccccc1)NC(=O)OC(C)(C)C)C(F)(F)F (stereo partly drawn) [Example 47, Boc-Phe-His Amide of (1R,2S,2'S,3'S)-2-Amino-3-cyclohexyl-1-hydroxy-1-[3'-(1,1,1-trifluoroisopropyl)oxetan-2'-yl]propane] | 1200 pM
CC(C)(C)OC(=O)N[C@@H](Cc1ccccc1)C(=O)N[C@@H](Cc1cnc[nH]1)C(=O)N[C@@H](CC1CCCCC1)[C@@H](O)[C@H]1OCC1(C)C [Example 48, Boc-Phe-His Amide of (1R,2S,2'S)-2-Amino-3-cyclohexyl-1-[3',3'-(dimethyl)oxetan-2'-yl]-1-(hydroxy)propane] | 1000 pM
CC[C@H]1CO[C@@H]1[C@H](O)[C@H](CC1CCCCC1)NC(=O)C(Cc1cscn1)NC(=O)[C@H](Cc1ccccc1)CS(=O)(=O)N1CCN(C)CC1 (stereo partly drawn) [Example 68, (2S) 2-Benzyl-3-(1-methyl-piperazin-4-ylsulfonyl)propionyl-(4-thiazolyl)alanineAmide of (1R,2S,2'S,3'S)-2-Amino-3-cyclohexyl-1-[3'-(ethyl)oxetan-2'-yl]-1-(hydroxy)propane] | 190 pM
CC[C@H]1CO[C@@H]1[C@H](O)[C@H](CC1CCCCC1)NC(=O)[C@H](Cc1cscn1)NC(=O)[C@@H](CC(=O)N1CCOCC1)Cc1ccccc1 [Example 69, (2R)-2-Benzyl-3-(morpholinocarbonyl)propionyl-(4-thiazolyl)alanine Amide of (1R,2S,2'S,3'S)-2-Amino-3-cyclohexyl-1-[3'-(ethyl)oxetan-2'-yl]-1-(hydroxy)propane] | 250 pM
CC[C@H]1CO[C@@H]1[C@H](O)[C@H](CC1CCCCC1)NC(=O)C(Cc1cscn1)NC(=O)[C@@H](CC(=O)N1CCN(C)CC1)Cc1ccccc1 (stereo partly drawn) [Example 70, (2R)-2-Benzyl-3-[(4-methylpiperazin-1-yl)carbonyl]propionyl-(4-thiazolyl)alanine Amide of (1R,2S,2'S,3'S)-2-Amino-3-cyclohexyl-1-[3'-(ethyl)oxetan-2'-yl]-1-(hydroxy)propane] | 200 pM
CC[C@H]1CO[C@@H]1[C@H](O)[C@H](CC1CCCCC1)NC(=O)[C@H](Cc1cscn1)NC(=O)[C@@H](CC(=O)N(C)CCc1ccccn1)Cc1ccccc1 [Example 71, (2R)-2-Benzyl-3-[(2-pyridin-2-ylethyl)methylaminocarbonyl]propionyl-(4-thiazolyl)alanine Amide of (1R,2S,2'S,3'S)-2-Amino-3-cyclohexyl-1-[3'-(ethyl)oxetan-2'-yl]-1-(hydroxy)propane] | 270 pM
CCCC[C@H](O[C@@H](Cc1ccccc1)C(=O)N1CCC(OCOC)CC1)C(=O)N[C@@H](CC1CCCCC1)[C@@H](O)[C@H]1OC[C@@H]1C(C)C [Example 72, (2S)-[(1S)-[(Methoxymethoxy)piperidin-1-yl]carbonyl-2-phenylethoxy]hexanoicAcid Amide of (1R,2S,2'S,3'S)-2-Amino-3-cyclohexyl-1-[3'-(isopropyl)oxetan-2'-yl]-1-(hydroxy)propane] | 800 pM
CC[C@H]1CO[C@@H]1[C@H](O)[C@H](CC1CCCCC1)NC(=O)C(Cc1cscn1)NC(=O)[C@H](Cc1ccccc1)Cn1ccnc1 (stereo partly drawn) [Example 76, (2R)-2-Benzyl-3-(imidazol-1-yl)propionyl-(4-thiazolyl)alanine Amide of (1R,2S,2'S,3'S)-1-Amino-3-cyclohexyl-1-[3'-(ethyl)oxetan-2'-yl]-1-(hydroxy)propane] | 280 pM
CCCC[C@H](NC(=O)[C@@H](CC(=O)N1CCN(C)CC1)Cc1ccccc1)C(=O)N[C@@H](CC1CCCCC1)[C@@H](O)[C@H]1OC[C@@H]1CC [Example 155, (2R)-2-Benzyl-3-(4-methylpiperazin-1-ylcarbonyl)propionyl(nor)Leucine Amide of (1R,2S,2'S,3'S)-2-Amino-3-cyclohexyl-1-[3'-(ethyl)oxetan-2'-yl]-1-(hydroxy)propane] | 370 pM
CC[C@H]1CO[C@@H]1[C@H](O)[C@H](CC1CCCCC1)NC(=O)[C@H](CC(C)C)NC(=O)[C@@H](CC(=O)N1CCN(C)CC1)Cc1ccccc1 [Example 163, (2R)-2-Benzyl-3-(4-methylpiperazin-1-ylcarbonyl)propionyl-leucine Amide of (1R,2S,2'S,3'S)-2-Amino-3-cyclohexyl-1-[3'-(ethyl)oxetan-2'-yl]-1-(hydroxy)propane] | 510 pM
CCOC(=O)NC(Cc1ccccc1)C(=O)NC(CC(C)C)C(=O)N[C@@H](CC1CCCCC1)[C@@H](O)[C@H]1OC[C@@H]1CC (stereo partly drawn) [Example 164, Ethoxycarbonyl-Phe-Leu Amide of (1R,2S,2'S,3'S)-2-Amino-3-cyclohexyl-1-[3'-(ethyl)oxetan-2'-yl]-1-(hydroxy)propane] | 460 pM
CC[C@H]1CO[C@@H]1[C@H](O)[C@H](CC(C)C)NC(=O)C(Cc1cnc[nH]1)NC(=O)C(Cc1ccccc1)NC(=O)OC(C)(C)C (stereo partly drawn) [Example 171, Boc-Phe-His Amide of (1R,2S,2'S,3'S)-2-Amino-1-[3'-(ethyl)oxetan-2'-yl]-1-hydroxy-4-(methyl)pentane] | 500 pM
CC[C@H]1CO[C@@H]1[C@H](O)[C@H](CC(C)C)NC(=O)C(Cc1cscn1)NC(=O)[C@H](Cc1ccccc1)CS(=O)(=O)N1CCN(C)CC1 (stereo partly drawn) [Example 178, (2S) 2-Benzyl-3-(1-methyl-piperazin-4-ylsulfonyl)propionyl-(4-thiazolyl)alanineAmide of (1R,2S,2'S,3'S)-2-Amido-1-[3'-(ethyl)oxetan-2'-yl]-1-hydroxy-4-(methyl)pentane] | 380 pM
CC[C@H]1CO[C@@H]1[C@H](O)[C@H](CC(C)C)NC(=O)C(Cc1cscn1)NC(=O)[C@H](Cc1ccccc1)Cn1ccnc1 (stereo partly drawn) [Example 181, (2R)-2-Benzyl-3-(imidazol-1-yl)propionyl-(4-thiazolyl)alanine Amide of (1R,2S,2S',3'S)-2-Amino-1-(3'-(ethyl)oxetan-2'-yl]-1-hydroxy-4-(methyl)pentane] | 3700 pM
CC[C@H]1CO[C@@H]1[C@H](O)[C@H](CC1CCCCC1)NC(=O)[C@H](CC(C)C)NC(=O)[C@H](Cc1ccccc1)Cn1ccnc1 [Example 182, (2R)-2-Benzyl-3-(imidazol-1-yl)propionyl-Leucine Amide of (1R,2S,2'S,3'S)-2-Amino-3-cyclohexyl-1-[3'-(ethyl)oxetan-2'-yl]-1-(hydroxy)propane] | 650 pM
CC[C@H]1CO[C@@H]1[C@H](O)[C@H](CC1CCCCC1)NC(=O)[C@H](CC(C)C)NC(=O)C(Cc1ccccc1)Cc1ccccc1 [Example 183, Dibenzylacetyl-Leucine Amide of (1R,2S,2'S,3'S)-2-Amino-3-cyclohexyl-1-[3'-(ethyl)oxetan-2'-yl]-1-(hydroxy)propane] | 1200 pM
CCCCC(NC(=O)CCc1ccccc1)C(=O)N[C@@H](CC1CCCCC1)[C@@H](O)[C@H]1OC[C@@H]1CC (stereo partly drawn) [Example 186, Dihydrocinnamoyl-(nor)Leucine Amide of (1R,2S,2'S,3'S)-2-Amino-3-cyclohexyl-1-[3'-(ethyl)oxetan-2'-yl]-1-(hydroxy)propane] | 3300 pM
